Earlier results, collected in US20030157061A1, “Combinations of a cyclooxygenase-2 selective inhibitor and a TNFalpha antagonist and therapeutic uses therefor” (Pharmacia Corporation, priority 2001, published 2003).

Tested on: fibroblast growth factor-induced corneal angiogenesis
Details: rats

Cc1ccc(-c2cc(C(F)(F)F)nn2-c2ccc(S(N)(=O)=O)cc2)cc1 [Celecoxib, 4-[5-(4-methylphenyl)-3-(trifluoromethyl)-1H-pyrazol-1-yl]benzenesulfonamide]
inhibition of fibroblast growth factor-induced corneal angiogenesis: potent inhibition
